In assay [1] the test system is senescence-accelerated model mouse SAM-P8. Kind of assay: Genome expression (RNA sequencing, PCA) in the whole brain of senescence-accelerated model mice after oral administration. In kind it is in vivo. The settings on record: oral 7 days: donepezil 5 mg/kg, acteoside 100 mg/kg, SSa extract powder 500 mg/kg, brain after 30 days.
Experimental: Seven-week-old male normal aged mouse SAM-R and male senescence-accelerated model mouse SAM-P8 that were respectively obtained from Japan SLC were arbitrarily divided into two groups of 10 mice each and acclimatized for 1 week. Then, 500 mg/kg of SSa extract powder was orally administered to SAM-R SSa extract powder-administered group and SAM-P8 SSa extract powder-administered group for 7 days. Each group of mice other than the above groups was given normal feed and water freely. Next, after the mice were reared for 30 days, the mice were humanely killed by anesthesia. The whole brain was taken out and preserved at −80° C. by the genome analysis.
Next, chloroform (0.2 mL) was added thereto, and the mixture was stirred well for 15 seconds and then stood still for 2 to 3 minutes. […]
The specific mRNA was concentrated from the obtained total RNA using an RNA sample preparation kit (“TruSeq Standard mRNA Library Prep kit” manufactured by Illumina). […] Then, the sequences of the cDNA library were determined using a next-generation DNA sequencer (“NoVaSeq6000” manufactured by Illumina) in the conditions of 100 bp, Paired-end and 40,000,000 read per 1 sample.
STAR>cufflinks>cuffdif analysis was carried out to compare the analysis results. GRCm38.92 was used as a mouse genome database, and the gene expression amount in gene level and in exon level as the component element of the gene was analyzed. […]
The target in assay [2] is T1, Aβ derived from human (Human, 1-42) (Homo sapiens, UniProt P05067).
T1 construct: Aβ derived from human (“Human, 1-42” manufactured by Peptide Institute); purchased Peptide Institute
T1 sequence (P05067 672-713 limits assumed): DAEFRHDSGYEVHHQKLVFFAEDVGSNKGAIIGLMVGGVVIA
Nature of the assay: Aβ accumulation inhibitory activity using Thioflavin-T. It is filed as biochemical. The settings on record: pure compounds, similarly to Example 5(1); Aβ 25 μM, 24 hours. As to the method: The Aβ accumulation inhibitory activities of each fraction were determined using Thioflavin-T in the following condition. Aβ derived from human (“Human, 1-42” manufactured by Peptide Institute) was dissolved in 0.1% ammonia water in a concentration of 250 μM. Each of the fraction samples was added to a phosphate buffer (0.05 M sodium phosphate+0.1 M sodium chloride, pH7.4) (hereinafter abbreviated as “PBS”) in the final concentrations of 0.01 g/L, 0.05 g/L and 0.1 g/L. The Aβ solution was added thereto in the final concentration of 25 μM for the reaction at 37° C. A part of the reaction mixture was collected 0, 4, 8 and 24 hours after the start of the reaction, and 2.5 μL of the collected reaction mixture was added to each well of a 96 well plate for fluorescence measurement (“Nunc FluoroNunc plate” manufactured by Thermo Fisher Science). Then, Thioflavin-T solution was dissolved in 50 mM glycine-sodium hydroxide buffer (pH 8.5), and the solution (250 μL) was added to each well. The fluorescence intensity emitted when the B sheet of the Aβ fiber was labeled with Thioflavin-T was measured. The fluorescence intensity was measured using a microplate reader (“Wallac 1420 ARVO MX” manufactured by Perkin Elmer) in the condition of a wavelength of Excitation: 420 nm and Emission: 485 nm.

The target of assay [3] is T2, human islet amyloid polypeptide (hIAPP) (Homo sapiens, UniProt P10997).
T2 construct: hIAPP manufactured by Karebay Biochem was used in place of Aβ; purchased Karebay Biochem
T2 sequence (P10997 34-70 limits assumed): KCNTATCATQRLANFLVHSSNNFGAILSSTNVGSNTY
Nature of the assay: hIAPP accumulation inhibitory activity using Thioflavin-T. In kind it is biochemical. The settings on record: compounds at 1, 10, 100 μM in PBS pH7.4.

One may read the IC50 as the midpoint of a concentration-inhibition curve. Regarding `C[C@@H]1O[C@@H](O[C@@H]2[C@@H](O)[C@H](OCCc3ccc(O)c(O)c3)O[C@H](CO)[C@H]2OC(=O)/C=C/c2ccc(O)c(O)c2)[C@H](O)[C@H](O)[C@H]1O` [Acteoside, acteoside], the “Difference of expression pattern from the control group on PC1 axis (PCA, gene and exon level)” value in assay [1] is listed as “not a large difference”. Also, the figures for the IC50 in assay [2] and in assay [3] were 13 µM and 21 µM, respectively.

As to `COc1cc2oc(-c3ccc(O)c(O)c3)cc(=O)c2c(O)c1O[C@@H]1O[C@H](CO)[C@@H](O)[C@H](O)[C@H]1O` [Pedaliin, pedaliin], the IC50 was 2.8 µM in assay [2] and 4.2 µM in assay [3].

The values are drawn from US20260108572A1, “ALZHEIMER-TYPE DEMENTIA SUPPRESSANT, AND METHOD FOR PRODUCING SAME” (Sakamoto Yakusouen, LLC, priority 2022, published 2026).
